Assay results taken from patent US20080292619A1, “Pharmaceutical Composition Containing Meltrin Antagonist” (MOCHIDA PHARMACEUTICAL CO., LTD., priority 2004, published 2008).

System: human meltrin α RNA
Test: Suppression of human meltrin α expression by antisense compound in RD cell (real time PCR)
Format: cell-based
Conditions: RD cell, corrected by GAPDH
Method: First, RD cell (ATCC) was suspended in DMEM containing 10% fetal bovine serum (FBS, SIGMA), and the suspension was inoculated in 6 well culture plate at 2.5×10^5 cells/well/2 mL. After incubating overnight at 37° C. in the presence of 5% CO2, the cells were washed twice with serum-free DMEM, and Opti-MEM medium (GIBCO) was added at 800 μL/well.
Gene transfection reagent Lipofectin (Invitrogen) was diluted with Opti-MEM to 20 μg/mL, and the dilution was allowed to stand at room temperature for 30 minutes. Next, the antisense oligodeoxynucleotide synthesized as described above was heated at 90° C. for 3 minutes, and after quenching on ice, diluted with Opti-MEM to a concentration 10 times higher than the final concentration. Equal amounts of the Lipofectin in Opti-MEM and the antisense oligo DNA in Opti-MEM were mixed, and the mixture was incubated at room temperature for 15 minutes and added to 6 well plate at 200 μL/well.
The culture was incubated at 37° C. for 4 hours in the presence of 5% CO2, and the culture supernatant containing the Lipofectin was removed. The cells were washed twice with serum-free DMEM, and after adding 1 mL/well of Opti-MEM and incubating for 18 hours at 37° C. in the presence of 5% CO2, the cells were subjected to the measurement of the level of expression of meltrin α RNA.
After the washing, RNA was isolated from the cell by using RNA isolation kit (RNeasy Micro Kit, QIAGEN) according to the protocol of the kit, and RNA concentration was determined by measuring absorbance at a wavelength of 260 nm with a spectrophotometer (Nano prop, LMS Co., Ltd.) (1OD=40 μg/mL). After the quantitation, the RNA was prepared to a concentration of 0.1 μg/μL by using DEPC-treated water.
0.35 μg of the isolated RNA, and 3.5 μL of 10× TaqMan buffer, 7.7 μL of 25 mM MgCl2, 7.0 μL of 2.5 mM each dNTP Mix, 1.75 μL of 50 μM Random Hexamers, 0.7 μL of 20 U/μL RNase inhibitor, and 0.9 μL of 50 U/μL MultiScribe Reverse Transcriptase (all purchased from Applied Biosystems) were mixed, and water was added to make up the total volume to 35 μL. This solution was maintained at 25° C. for 10 minutes, at 48° C. for 30 minutes, and at 95° C. for 5 minutes, and reverse transcription was conducted to synthesize cDNA.
A solution in total volume of 20 μL containing 10 μL of TaqMan Universal PCR Master Mix, 0.4 μL of 10 μM TaqMan MGB Probe (sequence 5′FAM-caccgaaggacaatccca-MGB-3′: Applied Biosystems), 0.1 μL of 50 μM Forward primer (sequence ggaagccgccagattcct) for detecting meltrin α, 0.1 μL of 50 μM Reverse primer (sequence […]) for detecting meltrin α (all purchased from Sigma-Genosys), 5 μL of the cDNA solution of (3), and 4.4 μL of water was prepared, and after maintaining the solution at 50° C. for 2 minutes and at 95° C. for 10 minutes, PCR was conducted by repeating 40 cycles of 95° C. for 15 seconds and 60° C. for 1 minute in ABI Prism 7000.
The amount of the human meltrin α RNA was measured by conducting real time PCR by using the plasmid containing the cDNA coding for the human meltrin α for the template to generate the standard curve, and calculating RNA copy number of the meltrin α in each sample. The level of expression of GAPDH was also determined by using a primer and probe set for real time PCR of human GAPDH (Pre-Developed TaqMan Assay Reagents Human GAPDH (20×) (Cat# 4310884E, Applied Biosystems).
The results of the real time PCR of the meltrin α was corrected by the level of expression of the GAPDH to calculate the suppression rate. […]

Row | Substance | suppression rate of expression, 200 nM | suppression rate of expression, 50 nM
1 | H001: gactaggaagagcgttagtg (GACTAGGAAGAGCGTTAGTG; antisense; DNA, all phosphorothioate, methylation of C not given here) | + (“+” when the suppression rate was at least 30%) | –
2 | H002: actgtccgagttggcccggg (ACTGTCCGAGTTGGCCCGGG; antisense; DNA, all phosphorothioate, methylation of C not given here) | ++ (“++” when the suppression rate was at least 50%) | –
3 | H003: ccgttgcaataaatgagcaa (CCGTTGCAATAAATGAGCAA; antisense; DNA, all phosphorothioate, methylation of C not given here) | + (“+” when the suppression rate was at least 30%) | –
4 | H004: ctggcacaagccagccttga (CTGGCACAAGCCAGCCTTGA; antisense; DNA, all phosphorothioate, methylation of C not given here) | +++ (“+++” when the suppression rate was at least 70%) | + (“+” when the suppression rate was at least 30%)
5 | H006: tttccccccgtgtgtgtgcg (TTTCCCCCCGTGTGTGTGCG; antisense; DNA, all phosphorothioate, methylation of C not given here) | ++ (“++” when the suppression rate was at least 50%) | ++ (“++” when the suppression rate was at least 50%)
6 | H008: gccgccgctgagctcttcta (GCCGCCGCTGAGCTCTTCTA; antisense; DNA, all phosphorothioate, methylation of C not given here) | ++ (“++” when the suppression rate was at least 50%) | ++ (“++” when the suppression rate was at least 50%)
7 | H009: agccctcgcgcacggcccgc (AGCCCTCGCGCACGGCCCGC; antisense; DNA, all phosphorothioate, methylation of C not given here) | +++ (“+++” when the suppression rate was at least 70%) | + (“+” when the suppression rate was at least 30%)
8 | H010: cctcggcgagtcagctccgg (CCTCGGCGAGTCAGCTCCGG; antisense; DNA, all phosphorothioate, methylation of C not given here) | ++ (“++” when the suppression rate was at least 50%) | ++ (“++” when the suppression rate was at least 50%)
9 | H011: gcgaccggagggatttcctg (GCGACCGGAGGGATTTCCTG; antisense; DNA, all phosphorothioate, methylation of C not given here) | ++ (“++” when the suppression rate was at least 50%) | + (“+” when the suppression rate was at least 30%)
10 | H012: gccgagcggggccgggcgtc (GCCGAGCGGGGCCGGGCGTC; antisense; DNA, all phosphorothioate, methylation of C not given here) | +++ (“+++” when the suppression rate was at least 70%) | –
11 | H013: ctgcaccatcccacgcgggc (CTGCACCATCCCACGCGGGC; antisense; DNA, all phosphorothioate, methylation of C not given here) | ++ (“++” when the suppression rate was at least 50%) | + (“+” when the suppression rate was at least 30%)
12 | H014: ctcgggcccggcggcgagcg (CTCGGGCCCGGCGGCGAGCG; antisense; DNA, all phosphorothioate, methylation of C not given here) | +++ (“+++” when the suppression rate was at least 70%) | –
13 | H015: cggccttcagtgcagcagct (CGGCCTTCAGTGCAGCAGCT; antisense; DNA, all phosphorothioate, methylation of C not given here) | + (“+” when the suppression rate was at least 30%) | ++ (“++” when the suppression rate was at least 50%)
14 | H016: gggcgcgctgccatcgtcgc (GGGCGCGCTGCCATCGTCGC; antisense; DNA, all phosphorothioate, methylation of C not given here) | ++ (“++” when the suppression rate was at least 50%) | + (“+” when the suppression rate was at least 30%)
15 | H017: gggcgggggacacgggcagc (GGGCGGGGGACACGGGCAGC; antisense; DNA, all phosphorothioate, methylation of C not given here) | ++ (“++” when the suppression rate was at least 50%) | –
16 | H018: cagggcgagcaggagggcgc (CAGGGCGAGCAGGAGGGCGC; antisense; DNA, all phosphorothioate, methylation of C not given here) | ++ (“++” when the suppression rate was at least 50%) | + (“+” when the suppression rate was at least 30%)
17 | H019: ggcgcgagcagagcaccggc (GGCGCGAGCAGAGCACCGGC; antisense; DNA, all phosphorothioate, methylation of C not given here) | ++ (“++” when the suppression rate was at least 50%) | –
18 | H020: tcacccctcgggcctcgcag (TCACCCCTCGGGCCTCGCAG; antisense; DNA, all phosphorothioate, methylation of C not given here) | ++ (“++” when the suppression rate was at least 50%) | –
19 | H021: tcttccttggttccataagc (TCTTCCTTGGTTCCATAAGC; antisense; DNA, all phosphorothioate, methylation of C not given here) | + (“+” when the suppression rate was at least 30%) | –
20 | H023: ggtccccactccgaacagag (GGTCCCCACTCCGAACAGAG; antisense; DNA, all phosphorothioate, methylation of C not given here) | + (“+” when the suppression rate was at least 30%) | –
21 | H026: gtcgaatattcagcacttct (GTCGAATATTCAGCACTTCT; antisense; DNA, all phosphorothioate, methylation of C not given here) | + (“+” when the suppression rate was at least 30%) | –
22 | H027: ttctttgctttcccgttgta (TTCTTTGCTTTCCCGTTGTA; antisense; DNA, all phosphorothioate, methylation of C not given here) | + (“+” when the suppression rate was at least 30%) | –
23 | H028: ctttccagatttatgatcag (CTTTCCAGATTTATGATCAG; antisense; DNA, all phosphorothioate, methylation of C not given here) | + (“+” when the suppression rate was at least 30%) | –
24 | H029: tggcaatgagaccttcattt (TGGCAATGAGACCTTCATTT; antisense; DNA, all phosphorothioate, methylation of C not given here) | + (“+” when the suppression rate was at least 30%) | –
25 | H030: gtgggtttccgtgaaactgc (GTGGGTTTCCGTGAAACTGC; antisense; DNA, all phosphorothioate, methylation of C not given here) | + (“+” when the suppression rate was at least 30%) | –
26 | H031: tcagtaccgtcttgcagata (TCAGTACCGTCTTGCAGATA; antisense; DNA, all phosphorothioate, methylation of C not given here) | + (“+” when the suppression rate was at least 30%) | –
